We go through two molecules from publication PMC2837340 (ACS Chemical Neuroscience, 2009).

Each structure is given as a SMILES string.

The target of assay [1] is horse spleen apoferritin (HSAF) (Equus caballus, UniProt P02791). The experiment in a line: isothermal titration calorimetry. The class given is binding. For orientation: ITC needs no label: the signal is the heat of the interaction.
Assay [2] addresses T1, Shaw2 K+ channel (Shaw2 F335A) (Drosophila melanogaster, UniProt P17972, F335A).
T1 sequence (P17972 1-498 F335A): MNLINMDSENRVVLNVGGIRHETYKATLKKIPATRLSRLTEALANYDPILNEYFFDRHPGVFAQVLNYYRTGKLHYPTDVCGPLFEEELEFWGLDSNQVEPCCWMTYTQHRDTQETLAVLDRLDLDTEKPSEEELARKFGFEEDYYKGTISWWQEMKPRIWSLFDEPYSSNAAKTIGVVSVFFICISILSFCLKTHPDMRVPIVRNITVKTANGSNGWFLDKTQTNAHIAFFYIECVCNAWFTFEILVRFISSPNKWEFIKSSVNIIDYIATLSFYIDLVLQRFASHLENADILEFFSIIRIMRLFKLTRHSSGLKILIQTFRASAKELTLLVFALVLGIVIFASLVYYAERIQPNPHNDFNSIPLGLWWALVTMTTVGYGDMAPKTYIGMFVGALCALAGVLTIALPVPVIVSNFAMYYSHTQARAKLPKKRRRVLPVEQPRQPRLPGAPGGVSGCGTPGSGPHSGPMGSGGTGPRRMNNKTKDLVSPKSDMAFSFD
The experiment in a line: two-electrode voltage clamp, Xenopus oocytes. Type of assay: cell-based. Particulars: read-out: % inhibition at 2 mM. (In general: Two-electrode voltage clamp is typically applied to oocytes expressing channels or transporters.)

By Kd is commonly meant the concentration at which binding is half-saturated. By inhibition is commonly meant the drop in the measured response relative to a control, in per cent.

Sequence of horse spleen apoferritin (HSAF) (P02791 2-175): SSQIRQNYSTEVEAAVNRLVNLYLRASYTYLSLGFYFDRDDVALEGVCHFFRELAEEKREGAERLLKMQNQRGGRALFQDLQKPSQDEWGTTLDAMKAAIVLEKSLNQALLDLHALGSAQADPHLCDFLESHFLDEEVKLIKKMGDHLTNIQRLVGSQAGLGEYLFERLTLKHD
Sequence of horse spleen apoferritin (HSAF) (Q8MIP0 2-182 partner): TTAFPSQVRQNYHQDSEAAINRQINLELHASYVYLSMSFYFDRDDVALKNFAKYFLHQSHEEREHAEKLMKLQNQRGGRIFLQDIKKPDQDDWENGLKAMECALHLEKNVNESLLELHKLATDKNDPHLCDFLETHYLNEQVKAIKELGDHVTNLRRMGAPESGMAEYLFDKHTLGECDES

Take `FC(F)(F)C(Cl)OC(F)(F)C1N=N1` (racemic) [compound 1, azi-isoflurane]: the affinity in assay [1], expressed as Kd, was 6 ± 1 µM. The inhibition at 2000 µM in assay [2] is 77 ± 0.2%.
The corresponding values for `FC(F)OC(Cl)C(F)(F)F` (stereo not shown) [isoflurane] are 58 ± 2 µM and 67%.
